Columns and labels:
[1] = target: T1, CtHtrA (Chlamydia trachomatis serovar D, UniProt P18584); test: CtHtrA protease inhibition assay; assay type: biochemical; conditions: for IC50: IC50 against CtHtrA; for Relative Potency against CtHtrA: [IC50 of control]/[IC50 test compound]
T1 construct: made in house; host or cells: E. coli BL21(DE3), pET22b
Method: The inhibitory activity of compounds 2a–g against CtHtrA was evaluated. […] As these compounds are reportedly covalent inhibitors of serine proteases, a true IC50 is unable to be calculated. Instead, the residual activity of the protease is monitored over time in response to a range of compound concentrations, and an IC50 value is interpolated from a dose–response curve (see Figures S2–S4 and Tables S1 and S2). This IC50 value is then compared to a positive control (JO146 was used for 2a–g, and 2g was used for 6a–h), giving the ‘relative potency’. This is the established method for assessing CtHtrA inhibitory potency. […] This effect may be due to depth restrictions within the S1 subpocket, as kinetic studies on the rates of protease inhibition in HLE were reduced by larger C-3 alkoxy substituents. Chain branching (iso-propyl and sec-butyl substituents) increased the activity, resulting in a 1.4-fold increase for 2e over 2b and a 2.8-fold improvement for 2g over 2c.
CtHtrA was expressed using an procedure adapted from the literature. Recombinant E. coli BL21(DE3) pET22b was grown in LB media containing 100 ug/mL ampicillin to an OD600 of 0.5-0.6 in 5 × 400 mL batches at 37 °C. Isopropyl β-D-1-thioglactopyranoside (1 M, 400 µL, 1 mM final concentration) was added to each flask and incubated at 30 °C with shaking at 150 rpm for an additional 2.5 h. The culture was centrifuged at 4000× g for 15 min at 4 °C, and the cell pellet was harvested and resuspended in lysis buffer (50 mM phosphate, 10 mM imidazole, 500 mM NaCl, 0.1% Triton X-100, 10% glycerol). Lysozyme was added to the suspended cells and was sonicated in 15 cycles of 15 s, with one minute between cycles while maintaining 4 °C, and then centrifuged at 8000× g for 20 min to remove any debris, retaining the supernatant for protein purification.
TALON® metal affinity resin (Takara cat no. 635652, 5 mL) was added to each lysate tube and washed sequentially with lysis buffer (2 × 45 mL) and stringency buffer (4 × 45 mL) and then eluted with elution buffer (2 × 5 mL), allowing incubations at 4 °C for 20 min per wash, and centrifuging at 2500× g and 4 °C between washes to pellet the resin. The eluates were dialyzed in Tris buffer (pH 7.0, 50 mM, 4 L) with magnesium chloride (20 mM) at 4 °C five times over 24 h, with a minimum of three hours per dialysis change. Protein expression and isolation were confirmed with SDS-PAGE Coomassie stained gel, which was examined for the band at the correct size, and a BCA assay to confirm purified protein concentration prior to use.
CtHtrA was added to 25 wells in a black 96-well plate (40–80 µL, 10 µL increments), to which Tris-HCl buffer (50 mM, pH 7.0 with 20 mM MgCl2) was added to bring the total volume to 90 µL for 10 wells and 85 µL for the remaining 15. JO146 (10 µM, 5 µL) was added to 5 wells and JO146 (1 µM, 5 µL) was added to another 5 wells, with DMSO (5 µL) being added to the remaining 5 as a control. The plate was incubated at 37 °C for 10 min before substrate (MCA-ENLHLPLPIIFK-DNP, 10 µL, 1 mg/mL, 50% isopropanol in buffer) was added and analyzed in a TECAN Infinite Pro M200 plate reader with an excitation wavelength of 340 nm and fluorescence measured at 405 nm with four reads per well at 60 s intervals. A minimum volume of CtHtrA granting a fluorescence change of 300 min^−1 was used for subsequent assay.
The determined appropriate volume of CtHtrA in buffer was added to a 96-well non-transparent black plate and diluted to 85 µL with buffer solution. Drug or control (5 µL) at a maximum of 20% DMSO/80% buffer was added to the appropriate well with DMSO controls, and the plate was incubated for 10 min to allow activation by the protein. MCA-ENLHLPLPIIFK-DNP (Mimotopes, Australia, 1 mg/mL, 10 µL) was added and immediately monitored on a TECAN M200 Infinite plate reader at 37 °C every 60 s for 30 min, using the same wavelengths as for the activity evaluation. […]

[2] = tested on: HEp-2 cells; test: MTS cell viability assay, HEp-2 cells; assay type: cell-based, human; conditions: 24 h; for effect on HEp-2 cell viability: any tested concentration (31.25, 62.5, 125 µM)
Method: The cytotoxic effects of the 4-chloroisocoumarin compounds 2a–g and 6a–h (24 h) were tested against HEp-2 and McCoy B cells using the MTS cell viability assay. HEp-2 and McCoy B cells were selected, as these are routinely used for the cultivation of chlamydial species, and low cytotoxicity against host cells is required to evaluate the anti-chlamydial properties of a test compound [27].
HEp-2 (human epithelial type 2, CCL-23, ATCC®, Virginia, USA) or McCoy B (mouse fibroblast, CRL-1696, ATCC®) cells were grown to 80–100% confluence, and cell density was determined with a haemocytometer. Cells were then diluted to 1 × 10^5 cells/mL, and 100 µL was added to each well in a 96-well plate, with 3 wells left as controls. Cells were grown for 24 h, and the media was removed and then replaced with fresh media containing 0.1% DMSO and the drug for testing in triplicate. Drugs and cells were incubated for 24 h, and then 20 µL of MTS and PMS solution was added and then incubated for a further four hours. Absorbance was measured at 490 nm on a TECAN M200 Infinite plate reader and data were processed using Microsoft Excel^TM with the following equation to determine cell viability relative to DMSO controls. Cellviability%=AbsorbanceDrug−AbsorbanceDye/AbsorbanceDMSO−AbsorbanceDye

T1 sequence (P18584 17-497): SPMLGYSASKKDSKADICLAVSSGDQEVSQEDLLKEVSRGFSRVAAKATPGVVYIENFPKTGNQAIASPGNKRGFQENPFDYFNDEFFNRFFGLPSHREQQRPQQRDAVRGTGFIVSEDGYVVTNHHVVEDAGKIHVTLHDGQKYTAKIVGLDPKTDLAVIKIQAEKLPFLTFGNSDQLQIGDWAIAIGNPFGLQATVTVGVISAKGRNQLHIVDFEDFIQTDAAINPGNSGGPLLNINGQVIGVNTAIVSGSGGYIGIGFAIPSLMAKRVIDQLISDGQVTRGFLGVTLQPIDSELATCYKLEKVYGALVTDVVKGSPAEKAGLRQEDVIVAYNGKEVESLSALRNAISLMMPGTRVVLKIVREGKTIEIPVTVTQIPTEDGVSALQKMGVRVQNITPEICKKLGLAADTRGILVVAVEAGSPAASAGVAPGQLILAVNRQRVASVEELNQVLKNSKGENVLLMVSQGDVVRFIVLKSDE

Compound | IC50 ([1]; Table S2, Batch 3, control 2g) | Relative Potency against CtHtrA ([1]; control 2g) | effect on HEp-2 cell viability [2] | also measured
CCC(C)Oc1oc(=O)c2ccccc2c1Cl (racemic) [Compound 2g, (±)-3-sec-Butoxy-4-chloroisocoumarin] | 34.9 µM |  |  | Relative Selectivity ([1]; (relative CtHtrA potency)/(relative HLE potency)): 14.6; IC50 ([1]; Table S2, Batch 2, control JO146): 9.11 µM; IC50 ([1]; Table S2, Batch 4, control 2g): 32.3 µM; IC50 ([1]; Table S2, Batch 5, control 2g): 28 µM; Relative Potency against CtHtrA ([1]; control JO146): 6.58
CCC(C)Oc1oc(=O)c2cc(N)ccc2c1Cl (racemic) [Compound 6a, (±)-7-Amino-4-chloro-3-sec-butoxyisocoumarin] | 107 µM | 0.326 |  | effect on HEp-2 cell viability / cytotoxicity ([2]; 125 µM): reduced cell viability slightly
CCC(C)Oc1oc(=O)c2cc(N(C)C)ccc2c1Cl (racemic) [Compound 6b, (±)-7-(Dimethylamino)-3-sec-butoxy-4-chloroisocoumarin] | 309 µM | 0.113 | not found to significantly impact cytotoxicity | 
CCC(C)Oc1oc(=O)c2cc(NC(C)=O)ccc2c1Cl (racemic) [Compound 6c, (±)-N-(4-Chloro-1-oxo-3-sec-butoxy-isochromen-7-yl)acetamide] | 221 µM | 0.158 | did not significantly affect cell viability | 
CCC(C)Oc1oc(=O)c2cc(NC(=O)C(F)(F)F)ccc2c1Cl (racemic) [Compound 6d, (±)-N-(4-chloro-1-oxo-3-sec-butoxy-isochromen-7-yl)-2,2,2-trifluoroacetamide] |  | <0.001 | did not significantly affect cell viability | IC50 against CtHtrA ([1]; Table S2, Batch 4, control 2g): Not active
CCC(C)Oc1oc(=O)c2cc(I)ccc2c1Cl (racemic) [Compound 6e, (±)-3-sec-Butoxy-4-chloro-7-iodoisocoumarin] |  | <0.001 |  | IC50 against CtHtrA ([1]; Table S2, Batch 4, control 2g): Not active; cytotoxicity against HEp-2 cells ([2]; 62.5 µM): retained some cytotoxicity
CCC(C)Oc1oc(=O)c2cc(OC)ccc2c1Cl (racemic) [Compound 6h, (±)-7-Methoxy-3-sec-butoxy-4-chloroisocoumarin] |  | 0.184 | did not significantly affect cell viability | IC50 ([1]; Table S2, Batch 5, control 2g): 152 µM
